Results reported in patent US7498309B2, “Pharmaceutical compositions for bioactive peptide agents” (Sangstat Medical Corporation, priority 2003, dated 2009).
Entries after “also recorded” stand apart in the source; their conditions may differ.

Tests used:
[1] = Fill formulation: solubility and dispersion of the peptide in Labrafil M 1944 CS; type: physicochemical
Experimental: Fill Formulation. […] The RDP58 peptide was not soluble in Labrafil M 1944 CS, thus a stable suspension of the peptide was made using Colloidal Silicon Dioxide, USP (Aerosil 300) as a suitable dispersing agent. Bench trials were performed to determine the needed quantity of Aerosil 300, which would provide a sufficient viscosity increase to maintain the peptide uniformly suspended for a minimum of 24 hours while allowing the fill formulation to remain flowable or pumpable. The fill formulation for the a 100 mg RDP58 softgel capsule is the following: […]

[2] = test system: cynomolgus monkeys with chronic and naturally occurring colitis; assay: RDP58 capsule therapy in primates suffering from colitis (stool quality scores); type: in vivo; conditions: for response to therapy: capsule from day 0
Experimental: RDP58 oral therapy is believed to have a beneficial effect on resolution of clinical signs of chronic colitis in primates suffering from a naturally occurring colitis like condition. In these studies, RDP58 was administered in aqueous form (i.e., powder dissolved in water) by oral gavage. The objective of the pilot study described in this example was to analyze the effect of administering RDP58 in capsule form to primates suffering from a chronic, naturally occurring, colitis-like condition. Data generated from this study was compared to data obtained from previous studies where RDP58 peptide was administered in aqueous form.
Methods. Four cynomolgus monkeys, with documented clinical histories of chronic and naturally occurring colitis, were selected for the study. All animals were monitored for 7 days before initiating therapy. Animals were dosed with one capsule (approximately 13 mg per capsule) every day, starting on Day 0, for 14 days. A commercially available cat pilling gun was used. Disease activity was monitored using stool quality scores. The scoring system used was the following: 1=Normal; 2=Loose stool; 3=Watery diarrhea; and 4=Bloody diarrhea. Response is defined as an improvement in stool quality score by at least 1 point.
Animals were physically examined twice per day. After 14 days, RDP58 therapy was stopped and animals were monitored for 7 additional days. Stool quality was documented through this period.

[3] = test system: cynomolgus monkeys with chronic and naturally occurring colitis; assay: as above; type: in vivo; conditions: animal MCY33636; capsule from day 0, treatment extended to day 21
[4] = all animals studied, oral capsule

For `CCCC[C@@H](NC(=O)[C@H](N)CCCNC(=N)N)C(=O)N[C@H](CCCC)C(=O)N[C@H](CCCC)C(=O)N[C@H](CCCNC(=N)N)C(=O)N[C@H](CCCC)C(=O)N[C@H](CCCC)C(=O)N[C@H](CCCC)C(=O)NCC(=O)N[C@H](Cc1ccc(O)cc1)C(N)=O` [RDP58, NH2-(D)Arg-(D)nL-(D)nL-(D)nL-(D)Arg-(D)nL-(D)nL-(D)nL-Gly-(D)Tyr-NH2], the “dispersion of the peptide” value ([1]; in Labrafil M 1944 CS) was “enhanced dispersion”, the “solubility in Labrafil M 1944 CS” value ([1]; suspending agent Labrafil M 1944 CS) was “not soluble” and the negative side effects [2, 4] was “None of the animals studied showed negative side effects”. The tolerability of dosing [2, 4] was “well tolerated”, the “effect on disease activity / therapeutic response” value ([2]; all four animals, one capsule (approximately 13 mg) orally every day for 14 days, stool quality scores) was “positive effects; also recorded: positive therapeutic response” and the response to therapy ([2]; animal 33558) was “immediate response”. The response to re-treatment ([2]; animal 33558, re-treated starting on day 23) was “Response to therapy was immediate”, the “time animal remained normal after therapy was stopped” value ([2]; animal 33558, therapy stopped on day 14) was 4 to 5 days and the response to therapy ([2]; animal MCY33560) was “immediate response”. For the same molecule, the “duration of normal stool quality” value ([2]; animal MCY33636) was 8 days, the response to therapy ([2]; animal MCY33639) was “immediate positive response” and the response to re-treatment ([2]; animal MCY33639, re-treated on day 23) was “immediate positive response”. For the same molecule, the response to therapy [3] was “response was immediate”.
